{"source": "patent US20130035302A1", "about": "“USE OF […] ANALOGUES AND DERIVATIVES THEREOF FOR TREATING AND/OR PREVENTING NEURODEGENERATIVE DISEASES LINKED TO TAU AND BETA AMYLOID” (UNIVERSIDADE DE SANTIAGO DE COMPOSTELA, priority 2010, published 2013)", "key": {"[1]": {"conditions": "Paz et al., Marine Drugs 2008; cited from earlier work"}, "[2]": {"test_system": "Tau phosphorylated on Thr212 and Ser214", "test": "Phosphorylated Tau (Thr212 and Ser214), Western blot with AT100 antibody", "format": "cell-based, mouse", "conditions": "3xTg-AD cortical cultures, 1 nM yessotoxin between days 3 and 7 of culture; n=3", "from_the_text": "(§1) In order to carry out the experiments of the present invention, either an in vitro cortical neuronal model with simultaneous overexpression of Tau and β-amyloid, obtained from a model of Alzheimer's disease in triple-transgenic (3xTg-AD or 3xTg) mice, obtainable via the detailed procedure in the international patent application WO 2003/053136 and provided by the title holders of this application, or an in vitro cortical neuronal model obtained from non-transgenic (no Tg) mice was used.\n(§2) The effect of yessotoxin on overexpression of β-amyloid and Tau hyperphosphorylation was determined by immunocytometric and Western blot techniques. Primary neuronal cultures were treated with 1 nM yessotoxin between days 3 and 7 of culture. The cells were then processed following the usual protocols for immunocytometry and Western blot. For immunocytometric and Western blot studies, protein expression was evaluated using 6E10 anti-β-amyloid primary antibodies at a dilution of 1:500, AT8 anti-Tau (Tau phosphorylated on Ser202, dilution 1:1000) and AT100 anti-Tau (Tau phosphorylated on Thr212 and Ser214, dilution 1:1000). […] Total protein concentration was determined by Bradford's method using bovine albumin as standard. […] The membranes were incubated with the primary antibodies, washed, and then incubated with a secondary antibody linked to HRP; the immunoreactivity was detected by chemiluminescence. […]"}, "[3]": {"test_system": "Tau phosphorylated on Ser202", "test": "Phosphorylated Tau (Ser202), Western blot with AT8 antibody", "format": "cell-based, mouse", "conditions": "3xTg-AD cortical cultures, 1 nM yessotoxin between days 3 and 7 of culture; *p<0.05, n=3", "from_the_text": "as §1, §2"}, "β-amyloid": {"test_system": "β-amyloid", "test": "Intracellular β-amyloid expression, immunocytometry with 6E10 antibody", "format": "cell-based, mouse", "conditions": "3xTg-AD neocortical cultures, 1 nM yessotoxin between days 3 and 7 of culture; **p<0.005 vs transgenic cultures, n=3", "from_the_text": "as §1, §2"}, "[4]": {"test_system": "primary cortical cultures", "test": "Cellular viability, Alamar Blue fluorescence assay", "format": "cell-based, mouse", "conditions": "primary cortical neurones, up to concentrations of 1 nM, Alamar Blue 10%", "from_the_text": "as §1\nThe primary cortical cultures in the present invention were obtained from 3xTg-AD mouse embryos of 15-17 days of gestation and the wild cultures were obtained from non-3xTg control mouse embryos of the same strain. The effect of the compounds used in this invention on cellular viability was estimated by a fluorescence assay using the Alamar Blue viability indicator. To carry out the assay, primary cortical cultures seeded on 96-well plates were used. The neuronal cells were incubated with yessotoxin, which was added to the culture medium at different concentrations, and the effect on in vitro neuronal viability at different treatment times was determined. The maximum concentration of yessotoxin evaluated was 1 nM and the concentration of Alamar blue was 10%.\nThe reaction volume used was 200 μl. Fluorescence was measured at wavelengths of 530 nm (excitation) and 590 nm (emission)."}}, "data": [{"substance": "yessotoxin", "values": [{"measurement": "oral toxicity", "setting": "[1]", "value": "does not exhibit oral toxicity"}, {"measurement": "reduction of Tau phosphorylation (AT100, Thr212 and Ser214)", "setting": "[2]", "value": 12, "unit": "%"}, {"measurement": "Tau phosphorylation (AT8, Ser202)", "setting": "[3]", "value": "significant reduction of Tau phosphorylation"}, {"measurement": "overexpression of β-amyloid (6E10 immunoreactivity)", "setting": "β-amyloid", "value": "significant reduction of overexpression of β-amyloid"}, {"measurement": "effect on in vitro cell viability", "setting": "[4]", "value": "did not affect in vitro cell viability"}]}]}
